Source: patent US5158939A, “Method of stimulating the immune systems of animals and compositions useful therefor” (priority 1990, dated 1992)

Legend:
[1] = test system: RAW 264.7 murine macrophage cells; test: Cachectin/TNF production by RAW 264.7 cells, immunoblot; format: cell-based; details: other lipid A analogs and precursors
Experimental: For the […] to activate the RAW 264.7 murine macrophage cell line, we chose the toxic deep rough chemotype LPS (ReLPS) from Escherichia coli D31m4, which was recently purified and characterized^15. […] This is a clear example of a lipid A derivative showing strong antagonism against a toxic agonist in the induction of cachectin.
The immunoblot method was used to quantitate the cachectin/TNF production by RAW 264.7 murine macrophage cells. RAW 264.7 cells^4,16 were seeded in 24-well plates (Nunc) at a density of 3×10^5 cells/well in Dulbecco's modified Eagle's medium supplemented with 5 percent fetal calf serum. After 12 hours, cell monolayers were washed twice with 1 ml of serum-free medium and then left covered with […] of the same. An aqueous suspension of DPLA and/or ReLPS was then added to a final concentration indicated. Cells were incubated for 12 hours, after which the medium was removed for measurement of TNF by immunoblotting. One hundred μl of medium was mixed with 100 μl of SDS-containing sample buffer, heated to 100° C. for 5 minutes, and subjected to electrophoresis in a 10-15% polyacrylamide gradient gel. Proteins were then transferred to nitrocellulose electrophoretically, and TNF was visualized through the use of a rabbit anti-mouse TNF polyclonal serum^3,5 applied at a 1:100 dilution, followed by alkaline phosphatase-conjugated goat anti-rabbit IgG (Bio-Rad).
Bands were visualized using nitroblue tetrazolium. Approximately 0.1 ng of cachectin/TNF may be detected as a band. The antiserum also recognized the processing intermediates (prohormones) on Western blot.

neutrophil = details: literature; cited from earlier work
[2] = large excess of lipid X; cited from earlier work
70Z/3 cells = details: background; cited from earlier work

Molecule | induction of cachectin in RAW cells (immunoblot) [1] | inhibition of LPS-induced neutrophil priming (neutrophil) | blocking of toxic effects of lipid A [2] | activity in stimulating 70Z/3 cells (70Z/3 cells)
CCCCCCCCCCC[C@@H](O)CC(=O)N[C@H]1[C@H](OC[C@H]2O[C@H](OP(=O)(O)O)[C@H](NC(=O)C[C@H](O)CCCCCCCCCCC)[C@@H](OC(=O)C[C@H](O)CCCCCCCCCCC)[C@@H]2O)O[C@H](CO)[C@@H](OP(=O)(O)O)[C@@H]1OC(=O)C[C@H](O)CCCCCCCCCCC [precursor IVA, reference compound] | caused the induction of cachectin |  |  | 
CCCCCCCCCCC[C@@H](O)CC(=O)N[C@H]1[C@@H](OP(=O)(O)O)O[C@H](CO)[C@@H](O)[C@@H]1NC(=O)C[C@H](O)CCCCCCCCCCC [3-aza-lipid X] |  | inhibit the LPS-induced neutrophil priming |  | 
monophosphoryl lipid A [reference compound] | caused the induction of cachectin |  |  | 
CCCCCCCCCCC[C@@H](O)CC(=O)N[C@H]1[C@@H](OP(=O)(O)O)O[C@H](CO)[C@@H](O)[C@@H]1OC(=O)C[C@H](O)CCCCCCCCCCC [lipid X] | caused the induction of cachectin | inhibit the LPS-induced neutrophil priming | partially blocking its toxic effects | some activity in stimulating 70Z/3 cells
